This note sets out measurements from US11548923B2, “Peptide compositions and methods of use thereof for disrupting TEAD interactions” (Fred Hutchinson Cancer Center, priority 2017, dated 2023).

Test [1] addresses T1, TEAD (Homo sapiens, UniProt P28347).
T1 construct: GST; made in house; host or cells: Hi5 insect cells (baculovirus, BacMagic, pIEX-BAC3)
In words: Mammalian surface display (SDGF vector, HEK-293 cells) TEAD-binding flow cytometry. The note with it: for TEAD binding of cells displaying variant versus parent peptide: HEK-293 suspension cells transfected with SDGF constructs; for TEAD binding of HEK-293 cells expressing SDGF-peptide: stained with 200 nM AF647-Streptavidin-TEAD. Background: Flow cytometry measures light scatter and fluorescence of single cells or particles in a stream.

The target in test [2] is T2, biotinylated TEAD (Homo sapiens, UniProt P28347).
T2 construct: GST; made in house; host or cells: Hi5 insect cells (baculovirus, BacMagic, pIEX-BAC3)
T2 sequence (P28347 209-426): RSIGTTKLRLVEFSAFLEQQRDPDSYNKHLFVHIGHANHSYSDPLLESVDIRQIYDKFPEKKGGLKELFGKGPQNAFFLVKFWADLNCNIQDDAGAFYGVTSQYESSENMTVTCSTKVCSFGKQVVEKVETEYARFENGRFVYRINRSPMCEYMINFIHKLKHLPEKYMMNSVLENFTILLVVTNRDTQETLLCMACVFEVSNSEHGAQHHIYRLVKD
In words: Surface plasmon resonance (SPR) binding of soluble peptides to captured biotinylated TEAD. The note with it: soluble peptides.

The target in test [3] is T3, YAP-TEAD interaction (Homo sapiens, UniProt P28347).
T3 construct: expressed in transfected cells; host or cells: 293T cells (lysates)
T3 sequence (P28347 whole entry): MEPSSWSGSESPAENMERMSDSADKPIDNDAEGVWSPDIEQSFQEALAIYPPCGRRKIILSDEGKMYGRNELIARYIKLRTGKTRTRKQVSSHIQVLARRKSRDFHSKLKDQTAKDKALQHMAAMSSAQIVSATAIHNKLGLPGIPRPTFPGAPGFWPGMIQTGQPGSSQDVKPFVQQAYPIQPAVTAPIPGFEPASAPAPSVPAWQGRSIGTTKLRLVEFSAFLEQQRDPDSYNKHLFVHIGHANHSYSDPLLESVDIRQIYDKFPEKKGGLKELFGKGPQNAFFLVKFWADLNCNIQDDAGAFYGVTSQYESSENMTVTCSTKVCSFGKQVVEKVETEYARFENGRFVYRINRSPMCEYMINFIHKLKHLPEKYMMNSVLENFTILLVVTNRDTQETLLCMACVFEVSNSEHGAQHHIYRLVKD
Put plainly: YAP-TEAD disruption co-immunoprecipitation (Myc-TEAD resin, FLAG-YAP lysate). The test is classed as biochemical. As to conditions: for FLAG-YAP pull-down with Myc-TEAD resin in the presence of peptide: Silver stain and Western blot. (In western blotting, separated proteins are transferred to a membrane and probed.)

Test [4] addresses T1, TEAD. In words: TEAD binding of SDGF-displayed peptides after exposure to reducing agent. As to conditions: 5 minutes, 20 nM TEAD. The procedure:
Peptides of this disclosure were also tested to evaluate if binding to TEAD was affected by exposure of peptide to reducing conditions. […] Cultures were grown for two days followed by incubation in 10 mM GSH or 10 mM DTT. Finally, cells were stained with TEAD. FIG. 13 illustrates binding to TEAD after cells expressing SDGF-SEQ ID NO: 9 are exposed to a reducing agent. FIG. 13A illustrates a flow cytometry plot showing binding of HEK-293 suspension cells transfected with SDGF-SEQ ID NO: 1 (GFP) incubated for 5 minutes in PBS, 10 mM DTT, or 10 mM glutathione (GSH) before staining with 20 nM biotinylated TEAD and 20 nM AF647-streptavidin. FIG. 13B illustrates a flow cytometry plot showing binding of HEK-293 suspension cells transfected with SDGF-SEQ ID NO: 9 (GFP) incubated for 5 minutes in PBS, 10 mM DTT, or 10 mM glutathione (GSH) before staining with 20 nM biotinylated TEAD and 20 nM AF647-streptavidin.

Test [5] addresses T4, TEAD binding to surface-displayed YAP (Homo sapiens, UniProt P28347).
T4 construct: made in house; host or cells: TEAD: Hi5 insect cells
Put plainly: Competitive binding of peptides to TEAD versus cell surface-displayed YAP (flow cytometry). The procedure:
FIG. 11D illustrates a flow cytometry plot of cells expressing SDGF-YAP that were incubated with 5 nM TEAD and then washed. Cells were immediately stained with AF647-streptavidin and analyzed for YAP-expressing cells that have bound TEAD. FIG. 11E illustrates a flow cytometry plot of cells expressing SDGF-YAP that were incubated with 5 nM TEAD and then washed. Cells were incubated on ice for 1 hour, stained with AF647-streptavidin and analyzed for YAP-expressing cells that have bound TEAD. FIG. 11F illustrates a flow cytometry plot of cells expressing SDGF-YAP that were incubated with 5 nM TEAD and then washed. […] FIG. 11G illustrates a flow cytometry plot of cells expressing SDGF-YAP that were incubated with 5 nM TEAD and then washed.

The target in test [6] is T5, YAP:TEAD dimers (Homo sapiens, UniProt P28347).
T5 construct: endogenous in cells; host or cells: HeLa cells
T5 sequence (P28347 whole entry): as above
Put plainly: YAP:TEAD proximity ligation assay (PLA) in HeLa cells. The note with it: 5 μM peptide with 5 μM dfTAT. Format: cell-based. The procedure: Proximity Ligation Assay. […] HeLa cells can be seeded in an 8-well chamber slide (Nunc Lab-Tek II) in DMEM+10% FBS and 1× Pen/Strep, and can be grown overnight, reaching ˜50% confluence. Cells can be gently washed 3 times with PBS containing 1 mM CaCl2 and 0.5 mM MgCl2, then 2 times in serum-free DMEM. Wells (120 μL total) can receive either 5 μM (final) peptide in PBS, or PBS alone, and can also receive either 5 μM (final) dfTAT reagent in PBS, or PBS alone, before a 90 minute incubation at 37° C. and 5% CO2 in a humidified tissue culture incubator. After incubation, cells can be gently washed 3 times in PBS, followed by fixation at 4° C. for 10 minutes with 4% formaldehyde in PBS. […]
PLA can be performed using the Duolink In Situ Fluorescence (Far Red) kit according to manufacturer's instructions, using supplied buffers without substitution and at recommended volumes for 1 cm^2 samples. […] For quantitation of nuclear speckles in ImageJ, UV and Cy5.5 filtered images can be Z-projected (maximum intensity), and can be processed using a custom macro to identify nuclear boundaries (UV channel) and speckles (Cy5.5 channel). […]
Proximity ligation assay (PLA) in HeLa cells was performed using primary antibodies against YAP and TEAD, in which speckles (APC channel) overlapping DAPI-stained nuclei (UV channel) were produced. […] All P-values were determined by two-tailed T-test.

Entries after “also recorded” stand apart in the source; their conditions may differ. Where a SMILES comes first, the peptide text is derived from it. Bridges are numbered along the chain shown (N, C = ends).

T1 sequence (P28347 209-426): as the sequence (P28347 209-426) above
T4 sequence (P28347 209-426): as above

In the case of “GSLERLKKCCNQGLDCEEARWKCEAEALFQGKNRETCLEEC [SEQ ID NO: 40]”, the “TEAD binding of cells displaying variant versus parent peptide” value in test [1] is listed as “loss of binding to TEAD”.

With “GSPDEYIERAKECCKKGDIQCCLRYFEESGDPNVALICLFCP [SEQ ID NO: 6]”, in test [1], the “TEAD binding of cells displaying variant versus parent peptide” value is recorded as “loss of binding to TEAD”.

As for “GSPDEYIERAKECCKKGDIQCCLRYFEESGDPNVMLICAFCP [SEQ ID NO: 5]”, the “affinity/binding to TEAD as compared to a peptide of SEQ ID NO: 1” value in test [2] is “reduced affinity for TEAD”. Also, the “TEAD binding of cells displaying variant versus parent peptide” value in test [1] is reported as “marginal loss of binding to TEAD”.

As for `CC[C@H](C)[C@@H]1NC(=O)[C@H](C)NC(=O)[C@H](CO)NC(=O)[C@@H]2CSSC[C@@H]3NC(=O)[C@H](CCC(N)=O)NC(=O)[C@H](CC(N)=O)NC(=O)[C@H](CC(N)=O)NC(=O)[C@H](CCC(N)=O)NC(=O)[C@H](CSSC[C@H](NC(=O)[C@H](CCC(N)=O)NC(=O)[C@H](CC(N)=O)NC(=O)[C@H](CC(=O)O)NC(=O)[C@H](Cc4ccc(O)cc4)NC(=O)[C@H](CC(C)C)NC(=O)CNC(=O)[C@H](Cc4ccccc4)NC(=O)[C@H](CO)NC(=O)CN)C(=O)N[C@@H](C)C(=O)N[C@@H]([C@@H](C)O)C(=O)N[C@@H](CO)C(=O)N[C@@H](CC(=O)O)C(=O)N[C@@H](C)C(=O)N2)NC(=O)[C@H](CCCCN)NC(=O)CNC(=O)[C@H](CCC(N)=O)NC(=O)CNC(=O)[C@H](CO)NC(=O)CNC(=O)[C@H]([C@@H](C)O)NC(=O)[C@H](Cc2c[nH]c4ccccc24)NC(=O)[C@H](Cc2ccc(O)cc2)NC(=O)[C@H](CCCCN)NC(=O)[C@H](CSSC[C@@H](C(=O)N[C@@H](Cc2ccc(O)cc2)C(=O)O)NC(=O)[C@H](CCCNC(=N)N)NC3=O)NC1=O` [SEQ ID NO: 3] (H-GSFGLYDNQCATSDACSAICKYWTGSGQGKCQNNQCRCY-OH; disulfide 10-31, 16-36, 20-38), in test [2], the “affinity/binding to TEAD as compared to a peptide of SEQ ID NO: 1” value was “lower binding affinity for TEAD”. The “TEAD binding of HEK-293 cells expressing SDGF-peptide” value in test [1] is “displayed binding to TEAD”.

In the case of “GSPDEYIERAKESSKKGDIQSSLRYFEESGDPNVMLISLFSP [SEQ ID NO: 184]”, in test [1], the “TEAD binding of cells displaying variant versus parent peptide” value is “loss of binding to TEAD”.

With “GSPDEYIERAKECCKKQDIQCCLRIFDESKDPNVMLICLFCP [SEQ ID NO: 11]”, the “TEAD binding with the extra wash step” value in test [1] (20 nM TEAD, Extra Wash protocol) was “diminished binding”.

On to “GSPDEYIERAKECCKKGDIQCCLRYFEESGDPNVMLICLFCP [SEQ ID NO: 1]”, for which, in test [3], the “FLAG-YAP pull-down with Myc-TEAD resin in the presence of peptide” value was “not pulled down”. In addition, the “inhibition of FLAG-YAP binding to Myc-TEAD resins” value in test [3] (dilution series of peptide, Western blot) is on record as “dose-dependent inhibition”. Besides, the figures for the “binding to TEAD after reducing agent treatment” value in test [4] (10 mM DTT) and in test [4] (10 mM GSH) were “partial loss in binding to TEAD” and “no loss in binding to TEAD”, respectively. In test [1] (20 nM TEAD concentration and 2-step staining), the “TEAD binding profile of displayed peptide” value is “apparent but weak”. Also, the “TEAD binding of HEK-293 cells expressing SDGF-peptide” value in test [1] was “displayed binding to TEAD”.

As to “GSPDEYIERAKECCKKGDIQCCLRYFAESGDPNVMLICLFCP [SEQ ID NO: 4]”, the “TEAD binding of cells displaying variant versus parent peptide” value in test [1] is recorded as “loss of binding to TEAD”.

On to “GSLERLKKCCNQGLDCEEARWKCELEALFQGKNRETCLEEC [SEQ ID NO: 2]”, for which the “TEAD binding of HEK-293 cells expressing SDGF-peptide” value in test [1] is on record as “displayed binding to TEAD”.

As to “GSPDEYIERAKECCKKQDIQCCLRIFDESKDPNVMLICLFCW [SEQ ID NO: 9]”, the “TEAD binding to YAP-displaying cells” value in test [5] (YAP-displaying cells first incubated with TEAD prior to addition of peptide) is reported as “near complete elimination of TEAD binding to YAP”; in test [5] (cells incubated with peptide, then 5 nM TEAD), “near complete elimination of TEAD binding to YAP”. Also, the “YAP:TEAD PLA speckles per nucleus” value in test [6] was “significantly reduces YAP:TEAD dimers in the nucleus; also recorded: significantly reduced”. Also, the “binding to TEAD after reducing agent treatment” value in test [4] (10 mM DTT) and in test [4] (10 mM GSH) was “no loss in binding to TEAD” throughout. Further, in test [1] (20 nM TEAD, Normal and Extra Wash protocols), the “mean fluorescence intensity (MFI) of TEAD staining normalized to SEQ ID NO: 1” value is reported as “performed the best”.

For the compound “GSLERLKKCCNQGLDCEEARWKCELEALAQGKNRETCLEEC [SEQ ID NO: 42]”, in test [1], the “TEAD binding of cells displaying variant versus parent peptide” value is given as “loss of binding to TEAD”.

Turning to “GSPDEYIERAKECCKKGDIQCCLRYFEESGDPNVMLICLACP [SEQ ID NO: 7]”, the “affinity/binding to TEAD as compared to a peptide of SEQ ID NO: 1” value in test [2] is “reduced affinity for TEAD”. The “FLAG-YAP pull-down with Myc-TEAD resin in the presence of peptide” value in test [3] was “not pulled down”. In addition, the “TEAD binding of cells displaying variant versus parent peptide” value in test [1] is given as “loss of binding to TEAD”.

“GSLERLKKCCNQGLDCEEARWKCELEAAFQGKNRETCLEEC [SEQ ID NO: 41]”: the “TEAD binding of cells displaying variant versus parent peptide” value in test [1] is given as “loss of binding to TEAD”.

Take “GSLERLKKSSNQGLDSEEARWKSELEALFQGKNRETSLEES [SEQ ID NO: 185]”: in test [1], the “TEAD binding of cells displaying variant versus parent peptide” value is given as “loss of binding to TEAD”.
